Measured values as given in patent US20060069132A1, “Azolecarboxamide herbicides” (priority 2004, published 2006).

Key:
large crabgrass [1] = test: Test C pre-/postemergence herbicide test; type: in vivo, Digitaria sanguinalis; settings: preemergence
Outline: (§1)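 Visual ratings on a 0–100 scale (100 = complete control) made versus untreated controls after 12 to 14 greenhouse days. Test chemicals, formulated in surfactant-containing non-phytotoxic solvent, applied preemergence to planted seeds or postemergence to 1- to 4-leaf plants (2 to 18 cm).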

lambsquarters = test: Test C pre-/postemergence herbicide test; type: in vivo, Chenopodium album; settings: preemergence
Outline: as §1

ducksalad = test: Test C flooded paddy test; type: in vivo, Heteranthera limosa; settings: for Plant response rating, Ducksalad: 500 g ai/ha, visual rating after 12 to 14 days
giant foxtail = test: Test A pre-/postemergence herbicide test; type: in vivo, Setaria faberi
Outline: (§2)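 Visual injury scores on a 0–100 scale (100 = complete control) taken about ten days post-treatment in greenhouse against untreated controls; dash means no result. Treatments: preemergence soil spray and postemergence spray to runoff on one- to two-leaf plants 2 to 10 cm tall, surfactant-containing formulation.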

velvetleaf = test: Test A pre-/postemergence herbicide test; type: in vivo, Abutilon theophrasti
Outline: as §2

rice = test: Test C flooded paddy test; type: in vivo, Oryza sativa; settings: for Plant response rating, Rice: 500 g ai/ha, visual rating after 12 to 14 days
Outline: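 Injury scored visually against controls on a 0 (no effect) to 100 (complete control) scale, 12 to 14 days after treatment in greenhouse. Flooded paddy plants treated at 2-leaf stage; postemergence plants at 1- to 4-leaf stage, 2 to 18 cm tall.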

woolly cupgrass = test: Test C pre-/postemergence herbicide test; type: in vivo, Eriochloa villosa; settings: preemergence
Outline: as §1

large crabgrass [2] = test: Test A pre-/postemergence herbicide test; type: in vivo, Digitaria sanguinalis
Outline: as §2

kochia = test: Test C pre-/postemergence herbicide test; type: in vivo, Kochia scoparia; settings: preemergence
Outline: as §1

barnyardgrass = test: Test A pre-/postemergence herbicide test; type: in vivo, Echinochloa crus-galli
Outline: as §2

johnsongrass = test: Test C pre-/postemergence herbicide test; type: in vivo, Sorghum halepense; settings: preemergence
Outline: as §1

corn = test: Test C pre-/postemergence herbicide test; type: in vivo, Zea mays; settings: preemergence
Outline: as §1

[3] = 125 g ai/ha, scale 0 (no effect) to 100 (complete control), visual, 12 to 14 days
[4] = 500 g ai/ha, scale 0 to 100 (0 no effect, 100 complete control), visual, 12 to 14 days
[5] = 62 g ai/ha, scale 0 to 100 (0 no effect, 100 complete control)
[6] = 125 g ai/ha, scale 0 to 100 (0 no effect, 100 complete control)
[7] = 250 g ai/ha, scale of 0 to 100, 0 is no effect, 100 is complete control
[8] = scale 0 to 100 (0 no effect, 100 complete control)
[9] = Postemergence, 500 g ai/ha, 0 to 100 scale, 0 no effect, 100 complete control
[10] = Postemergence, 2000 g ai/ha, 0 to 100 scale, 0 no effect, 100 complete control
[11] = Preemergence, 2000 g ai/ha, visual rating, 0 to 100 scale (0 no effect, 100 complete control)
[12] = preemergence, 500 g ai/ha, visual injury, 0 to 100 scale (0 no effect, 100 complete control)

For `CCc1nc(C(C)(C)C)sc1C(=O)Nc1cccc(C(=O)NCC2CC2)n1` [Compound 215], the “Plant response rating, Crabgrass, Large” value (large crabgrass [1]; 62 g ai/ha, scale 0 to 100) was 0, the “Plant response rating, Crabgrass, Large” value (large crabgrass [1]; [3]) was 70 and the “Plant response rating, Crabgrass, Large” value (large crabgrass [1]; 250 g ai/ha, scale 0-100) was 85. For the same compound, the “Plant response rating, Crabgrass, Large” value (large crabgrass [1]; [4]) was 100, the “Plant response rating, Lambsquarters” value (lambsquarters; 62 g ai/ha, scale 0 to 100) was 100 and the “Plant response rating, Lambsquarters” value (lambsquarters; [3]) was 100. The “Plant response rating, Lambsquarters” value (lambsquarters; 250 g ai/ha, scale 0-100) was 100, the “Plant response rating, Lambsquarters” value (lambsquarters; [4]) was 100 and the “Ducksalad plant response rating” value (ducksalad; [5]) was 40. For the same compound, the “Ducksalad plant response rating” value (ducksalad; [6]) was 40, the “Ducksalad plant response rating” value (ducksalad; [7]) was 60 and the “Plant response rating, Ducksalad” value (ducksalad; [8]) was 80. The “Foxtail, Giant plant response rating” value (giant foxtail; [9]) was 25, the “Plant response rating, Foxtail, Giant” value (giant foxtail; [10]) was 40 and the “Foxtail, Giant plant response rating” value (giant foxtail; [11]) was 75. For the same compound, the “Foxtail, Giant plant response rating” value (giant foxtail; [12]) was 50, the “Velvetleaf plant response rating” value (velvetleaf; [9]) was 30 and the “Plant response rating, Velvetleaf” value (velvetleaf; [10]) was 30. For the same compound, the “Velvetleaf plant response rating” value (velvetleaf; [11]) was 30, the “Velvetleaf plant response rating” value (velvetleaf; [12]) was 15 and the “Rice plant response rating” value (rice; [5]) was 0. The “Rice plant response rating” value (rice; [6]) was 0, the “Rice plant response rating” value (rice; [7]) was 0 and the “Plant response rating, Rice” value (rice; [8]) was 20. The “Plant response rating, Cupgrass, Woolly” value (woolly cupgrass; 62 g ai/ha, scale 0 to 100) was 0, the “Plant response rating, Cupgrass, Woolly” value (woolly cupgrass; [3]) was 10 and the “Plant response rating, Cupgrass, Woolly” value (woolly cupgrass; 250 g ai/ha, scale 0-100) was 40. For the same compound, the “Plant response rating, Cupgrass, Woolly” value (woolly cupgrass; [4]) was 50, the “Crabgrass, Large plant response rating” value (large crabgrass [2]; [9]) was 20 and the “Plant response rating, Crabgrass, Large” value (large crabgrass [2]; [10]) was 30. For the same compound, the “Crabgrass, Large plant response rating” value (large crabgrass [2]; [11]) was 55, the “Crabgrass, Large plant response rating” value (large crabgrass [2]; [12]) was 30 and the “Plant response rating, Kochia” value (kochia; 62 g ai/ha, scale 0 to 100) was 100. The “Plant response rating, Kochia” value (kochia; [3]) was 100, the “Plant response rating, Kochia” value (kochia; 250 g ai/ha, scale 0-100) was 100 and the “Plant response rating, Kochia” value (kochia; [4]) was 100. For the same compound, the “Barnyardgrass plant response rating” value (barnyardgrass; [9]) was 0, the “Plant response rating, Barnyardgrass” value (barnyardgrass; [10]) was 25 and the “Barnyardgrass plant response rating” value (barnyardgrass; [11]) was 35. For the same compound, the “Barnyardgrass plant response rating” value (barnyardgrass; [12]) was 15, the “Plant response rating, Johnsongrass” value (johnsongrass; 62 g ai/ha, scale 0 to 100) was 0 and the “Plant response rating, Johnsongrass” value (johnsongrass; [3]) was 20. For the same compound, the “Plant response rating, Johnsongrass” value (johnsongrass; 250 g ai/ha, scale 0-100) was 50, the “Plant response rating, Johnsongrass” value (johnsongrass; [4]) was 85 and the “Plant response rating, Corn” value (corn; 62 g ai/ha, scale 0 to 100) was 0. For the same compound, the “Plant response rating, Corn” value (corn; [3]) was 20, the “Plant response rating, Corn” value (corn; 250 g ai/ha, scale 0-100) was 20 and the “Plant response rating, Corn” value (corn; [4]) was 50.

In the case of `CCn1nc(C(C)(C)C)cc1C(=O)Nc1cncc(C(=O)N(C)C)n1` [Compound 287], the “Plant response rating, Crabgrass, Large” value (large crabgrass [1]; 62 g ai/ha, scale 0 to 100) is reported as 65, the “Plant response rating, Crabgrass, Large” value (large crabgrass [1]; [3]) is reported as 95 and the “Plant response rating, Crabgrass, Large” value (large crabgrass [1]; 250 g ai/ha, scale 0-100) is reported as 95. For the same compound, the “Plant response rating, Crabgrass, Large” value (large crabgrass [1]; [4]) was 100, the “Plant response rating, Lambsquarters” value (lambsquarters; 62 g ai/ha, scale 0 to 100) was 100 and the “Plant response rating, Lambsquarters” value (lambsquarters; [3]) was 100. For the same compound, the “Plant response rating, Lambsquarters” value (lambsquarters; 250 g ai/ha, scale 0-100) was 100, the “Plant response rating, Lambsquarters” value (lambsquarters; [4]) was 100 and the “Ducksalad plant response rating” value (ducksalad; 62 g ai/ha, scale 0 to 100) was 0. The “Ducksalad plant response rating” value (ducksalad; [6]) was 30, the “Ducksalad plant response rating” value (ducksalad; [7]) was 40 and the “Plant response rating, Ducksalad” value (ducksalad; [8]) was 45. For the same compound, the “Foxtail, Giant plant response rating” value (giant foxtail; [9]) was 40, the “Plant response rating, Foxtail, Giant” value (giant foxtail; [10]) was 90 and the “Foxtail, Giant plant response rating” value (giant foxtail; [11]) was 100. The “Foxtail, Giant plant response rating” value (giant foxtail; [12]) was 65, the “Velvetleaf plant response rating” value (velvetleaf; [9]) was 55 and the “Plant response rating, Velvetleaf” value (velvetleaf; [10]) was 65. For the same compound, the “Velvetleaf plant response rating” value (velvetleaf; [11]) was 100, the “Velvetleaf plant response rating” value (velvetleaf; [12]) was 50 and the “Rice plant response rating” value (rice; 62 g ai/ha, scale 0 to 100) was 0. For the same compound, the “Rice plant response rating” value (rice; [6]) was 20, the “Rice plant response rating” value (rice; [7]) was 25 and the “Plant response rating, Rice” value (rice; [8]) was 55. The “Plant response rating, Cupgrass, Woolly” value (woolly cupgrass; 62 g ai/ha, scale 0 to 100) was 0, the “Plant response rating, Cupgrass, Woolly” value (woolly cupgrass; [3]) was 0 and the “Plant response rating, Cupgrass, Woolly” value (woolly cupgrass; 250 g ai/ha, scale 0-100) was 10. For the same compound, the “Plant response rating, Cupgrass, Woolly” value (woolly cupgrass; [4]) was 35, the “Crabgrass, Large plant response rating” value (large crabgrass [2]; [9]) was 10 and the “Plant response rating, Crabgrass, Large” value (large crabgrass [2]; [10]) was 60. For the same compound, the “Crabgrass, Large plant response rating” value (large crabgrass [2]; [11]) was 100, the “Crabgrass, Large plant response rating” value (large crabgrass [2]; [12]) was 75 and the “Plant response rating, Kochia” value (kochia; 62 g ai/ha, scale 0 to 100) was 85. For the same compound, the “Plant response rating, Kochia” value (kochia; [3]) was 100, the “Plant response rating, Kochia” value (kochia; 250 g ai/ha, scale 0-100) was 100 and the “Plant response rating, Kochia” value (kochia; [4]) was 100. The “Barnyardgrass plant response rating” value (barnyardgrass; [9]) was 70, the “Plant response rating, Barnyardgrass” value (barnyardgrass; [10]) was 90 and the “Barnyardgrass plant response rating” value (barnyardgrass; [11]) was 100. The “Barnyardgrass plant response rating” value (barnyardgrass; [12]) was 95, the “Plant response rating, Johnsongrass” value (johnsongrass; 62 g ai/ha, scale 0 to 100) was 55 and the “Plant response rating, Johnsongrass” value (johnsongrass; [3]) was 85. For the same compound, the “Plant response rating, Johnsongrass” value (johnsongrass; 250 g ai/ha, scale 0-100) was 95, the “Plant response rating, Johnsongrass” value (johnsongrass; [4]) was 95 and the “Plant response rating, Corn” value (corn; 250 g ai/ha, scale 0-100) was 50.
